From ChEMBL document CHEMBL5055632, “Anti-Inflammatory and Antinociceptive Properties of Kielmeyerone A, a Chromenone Isolated from the Roots of Kielmeyera reticulata” (J Nat Prod, 2021)
The source made the active and inactive calls. The rule behind the calls is not given here.

Tests used:
[1] = tested on: J774; test: Cytotoxicity against LPS and IFN-gamma stimulated mouse J774 cells at 0.39 to 25 uM incubated for 72 hrs by alamar blue dye based colorimetric plate analysis; type: cell-based; conditions: j774, 72 h, dose 0.39-25 µM
[2] = tested on: J774; test: Antiinflammatory activity against mouse J774 cells assessed as inhibition of LPS/IFNgamma-stimulated NO production at 0.097 to 1.56 uM incubated for 24 hrs bu Griess reagent based assay; type: functional, cell-based; conditions: dose 0.097-1.56 µM
[3] = tested on: Mus musculus; test: Antiinflammatory activity in ip dosed Swiss Webster mouse model of complete freund's adjuvant-induced paw edema assessed as reduction in paw edema when administered 40 mins before CFA injection by plethysmometer analysis; type: functional, organism-based; conditions: dose 12.5-50 mg/kg
[4] = tested on: Mus musculus; test: Antinociceptive activity in ip dosed Swiss Webster mouse model of formalin-induced biphasic nociceptive response assessed as reduction in pain during late phase when administered 40 mins before formalin injection and measured after 10 to 30 mins post formalin challenge; type: functional, organism-based; conditions: dose 12.5-50 mg/kg, time 50-70 min
[5] = tested on: Mus musculus; test: Antinociceptive activity in Swiss Webster mouse model of formalin-induced biphasic nociceptive response assessed as reduction in pain during early phase at 12.5 to 50 mg/kg, ip administered 40 mins before formalin injection and measured after 10 mins post formalin challenge; type: functional, organism-based; conditions: dose 12.5-50 mg/kg, time 50.0 min
[6] = tested on: Mus musculus; test: Effect on motor performance in Swiss Webster mouse assessed as effect on relaxing or motor deficit at 100 mg/kg, ip measured up to 120 sec by rotarod test; type: ADME, organism-based; conditions: in vivo, 2 min
[7] = tested on: Mus musculus; test: Antinociceptive activity in Swiss Webster mouse model of formalin-induced biphasic nociceptive response assessed as reduction in pain during late phase at 5 mg/kg, ip administered 40 mins before formalin injection and measured after 10 to 30 mins post formalin challenge; type: functional, organism-based; conditions: time 50-70 min
[8] = tested on: Mus musculus; test: Antinociceptive activity in Swiss Webster mouse model of formalin-induced biphasic nociceptive response assessed as reduction in pain during early phase at 5 mg/kg, ip administered 40 mins before formalin injection and measured after 10 mins post formalin challenge; type: functional, organism-based; conditions: time 50.0 min
[9] = tested on: Mus musculus; test: Antiinflammatory activity in Swiss Webster mouse model of complete freund's adjuvant-induced paw edema assessed as reduction in paw edema at 2 mg/kg, ip administered 40 mins before CFA injection by plethysmometer analysis; type: functional, organism-based

With CC(C)=CCC1(CC=C(C)C)C(=O)c2c(CC(C)C)cc(=O)oc2C(C(=O)CC(C)C)=C1O the Activity [1] was “Non-Toxic”, the inhibition [2] was “Active” and the Activity [3] was “Dose-dependent effect”. The Activity [4] was “inactive”, the Activity [5] was “Dose-dependent effect” and the Activity [6] was “Non-Toxic”.

In the case of COc1ccc2c(c1)c(CC(=O)O)c(C)n2C(=O)c1ccc(Cl)cc1, the Activity [7] is reported as “Active” and the Activity [8] is reported as “inactive”.

For CN1CC[C@]23c4c5ccc(O)c4O[C@H]2[C@@H](O)C=C[C@H]3[C@H]1C5, the Activity [7] was “Active” and the Activity [8] was “Active”.

For C[C@@H]1C[C@H]2[C@@H]3CCC4=CC(=O)C=C[C@]4(C)[C@@]3(F)[C@@H](O)C[C@]2(C)[C@@]1(O)C(=O)CO, the Activity [9] was “Active”.
